What follows are compounds tested against T1, human c-Met (Homo sapiens, UniProt P08581) (assay: in vitro kinase assay (homogeneous time-resolved tyrosine kinase assay, METKA)). Conditions: recombinant GST-tagged c-Met cytosolic domain, HTRF, 50 μM MgATP; read-out: Biological Activity (METKA IC50) Activity Code.
T1 construct: Recombinant GST-tagged cytosolic domains of human c-Met; 6xHis; made in house; host or cells: Sf9 or Sf21 insect cells (baculovirus)
T1 sequence (P08581 956-1390 limits assumed): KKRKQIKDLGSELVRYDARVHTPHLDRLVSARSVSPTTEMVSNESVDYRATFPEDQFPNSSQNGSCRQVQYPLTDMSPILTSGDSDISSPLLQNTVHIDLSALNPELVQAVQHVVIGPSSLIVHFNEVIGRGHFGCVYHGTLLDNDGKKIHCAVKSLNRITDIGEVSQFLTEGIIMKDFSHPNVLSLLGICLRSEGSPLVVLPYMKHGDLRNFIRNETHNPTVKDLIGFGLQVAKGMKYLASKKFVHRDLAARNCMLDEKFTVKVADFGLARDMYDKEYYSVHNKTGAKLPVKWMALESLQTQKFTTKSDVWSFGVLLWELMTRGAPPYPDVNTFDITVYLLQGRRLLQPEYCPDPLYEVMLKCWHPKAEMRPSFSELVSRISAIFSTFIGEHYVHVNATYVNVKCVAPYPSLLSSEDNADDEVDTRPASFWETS
Format: biochemical
Text: Recombinant GST-tagged cytosolic domains of human c-Met and other receptor tyrosine kinases including mouse c-Met, human Ron, KDR, IGFR, EGFR, FGFR, Mer, TrkA and Tie2 are used to determine whether the compounds of the instant invention modulate the enzymatic activities of these kinases.
Soluble recombinant GST-tagged cytosolic domains of c-Met and other receptor tyrosine kinases are expressed in a baculovirus system (Pharmingen) according to a protocol recommended by the manufacturer. The c-DNA encoding each cytosolic domain is subcloned into a baculovirus expression vector (pGcGHLT-A, B or C, Pharmingen) containing an in frame 6× histidine tag and a GST tag. The resulting plasmid construct and BaculoGold baculovirus DNA (Pharmingen) are used to co-transfect Sf9 or Sf21 insect cells. After confirming expression of GST-tagged kinase fusion, a high titer recombinant baculovirus stock is produced, expression conditions are optimized, and a scaled up expression of rat KDR-GST fusion is performed. The fusion kinase is then purified from the insect cell lysate by affinity chromatography using glutathione agarose (Pharmingen). The purified protein is dialyzed against 50% glycerol, 2 mM DTT, 50 mM Tris-HCl (pH 7.4) and stored at −20° C. The protein concentrations of the fusion proteins are determined using Coomassie Plus Protein Assay (Pierce) with BSA as standard.
The kinase activities of c-Met and other kinases are measured using a modified version of the homogeneous time-resolved tyrosine kinase assay described by Park et al. (1999, Anal. Biochem. 269:94-104).
The procedure for determining the potency of a compound to inhibit c-Met kinase comprises the following steps: • 1. Prepare 3-fold serial diluted compound solutions in 100% dimethyl sulfoxide (DMSO) at 20× of the desired final concentrations in a 96 well plate. • 2. Prepare a master reaction mix containing 6.67 mM MgCl2, 133.3 mM NaCl, 66.7 mM Tris-HCl (pH 7.4), 0.13 mg/ml BSA, 2.67 mM dithiothreitol, 0.27 nM recombinant c-Met and 666.7 nM biotinylated synthetic peptide substrate (biotin-ahx-EQEDEPEGDYFEWLE-CONH2) (SEQ.ID.NO.:1). • 3. In a black assay plate, add 2.5 μl of compound solution (or DMSO) and 37.5 μl of master reaction mix per well. Initiate the kinase reaction by adding 10 μl of 0.25 mM MgATP per well. Allow the reactions to proceed for 80 min at room temperature. The final conditions for the reaction are 0.2 nM c-Met, 0.5 μM substrate, 50 μM MgATP, […], 100 mM NaCl, 2 mM DTT, 0.1 mg/ml BSA, 50 mM Tris (pH 7.4) and 5% DMSO. • 4. Stop the kinase reaction with 50 μl of Stop/Detection buffer containing 10 mM EDTA, 25 mM HEPES, 0.1% TRITON X-100, 0.126 μg/ml Eu-chelate labeled anti-phosphotyrosine antibody PY20 (cat. #AD0067, PerkinElmer) and 45 μg/ml Streptavidin-allophycocyanin conjugate (cat. #PJ25S, Prozyme). • 5. Read HTRF signals on a Victor reader (PerkinElmer) in HTRF mode after 60 min. • 6. IC50 is determined by fitting the observed relationship between compound concentration and HTRF signal with a 4-parameter logistic equation. Essentially the same procedure was used to determine the potency of compounds to inhibit mouse c-Met, human Ron, KDR, IGFR, EGFR, FGFR, Mer, TrkA and Tie2 except that the concentration of enzyme varied in individual assays (0.2 nM mouse c-Met; 2.5 nM Ron, 8 nM KDR; 0.24 nM IGFR; 0.24 nM EGFR; 0.14 nM FGFR; 16 nM Mer; 8 nM TrkA; 8 nM Tie2).
`Cn1cc(-n2ccc(=O)c(COc3cccc4cnccc34)n2)cn1` [Example 2, 3-[(isoquinolin-5-yloxy)methyl]-1-(1-methyl-1H-pyrazol-4-yl)pyridazin-4(1H)-one] was tested, and the IC50 was 1000 to 3000 nM.
`CCn1cc(-n2ccc(=O)c(COc3ccc4ncc(-c5cncnc5)cc4c3)n2)cn1` [Example 85, 1-(1-ethyl-1H-pyrazol-4-yl)-3-{[(3-pyrimidin-5-ylquinolin-6-yl)oxy]methyl}pyridazin-4(1H)-one] gave an IC50 of under 100 nM.
`Cn1cc(-n2ccc(=O)c(COc3ccc4ncc(-c5cnn(C6COC6)c5)cc4c3)n2)cn1` [Example 96, 1-(1-Methyl-1H-pyrazol-4-yl)-3-[({3-[1-(oxetan-3-yl)-1H-pyrazol-4-yl]quinolin-6-yl}oxy)methyl]pyridazin-4(1H)-one] gave an IC50 of under 100 nM.
`CCOc1cnc2ccc(OCc3nn(-c4ccc(F)c(F)c4)ccc3=O)cc2c1` [Example 46, 1-(3,4-difluorophenyl)-3-{[(3-ethoxyquinolin-6-yl)oxy]methyl}pyridazin-4(1H)-one] showed an IC50 of under 100 nM.
`Cn1cc(C(=O)Nc2cccc(OCc3nn(-c4cnn(C)c4)ccc3=O)c2)cn1` [Example 15, 1-Methyl-N-(3-{[1-(1-methyl-1H-pyrazol-4-yl)-4-oxo-1,4-dihydropyridazin-3-yl]methoxy}phenyl)-1H-pyrazole-4-carboxamide] showed an IC50 of 1000 to 3000 nM.
`COCc1cnc2ccc(OCc3nn(-c4cnn(C)c4)ccc3=O)cc2c1` [Example 73, 3-({[3-(methoxymethyl)quinolin-6-yl]oxy}methyl)-1-(1-methyl-1H-pyrazol-4-yl)pyridazin-4(1H)-one] showed an IC50 of under 100 nM.
For `CCn1cc(-n2ccc(=O)c(COc3ccc4ncc(OCC(F)F)cc4c3)n2)cn1` [Example 68, 3-({[3-(2,2-difluoroethoxy)quinolin-6-yl]oxy}methyl)-1-(1-ethyl-1H-pyrazol-4-yl)pyridazin-4(1H)-one], the IC50 was under 100 nM.
In the case of `CCOC(=O)Nc1ccc(CCc2nn(-c3cnn(C)c3)ccc2=O)cc1` [Example 121, ethyl (4-{2-[1-(1-methyl-1H-pyrazol-4-yl)-4-oxo-1,4-dihydropyridazin-3-yl]ethyl}phenyl)carbamate], the IC50 is reported as 1000 to 3000 nM.
`Cn1cc(-n2ccc(=O)c(COc3ccc4ncc(OCC(C)(C)O)cc4c3)n2)cn1` [Example 62, 3-({[3-(2-Hydroxy-2-methylpropoxy)quinolin-6-yl]oxy}methyl)-1-(1-methyl-1H-pyrazol-4-yl)pyridazin-4(1H)-one] showed an IC50 of under 100 nM.
Compound `COc1ccc2cc(OCc3nn(-c4cnn(C)c4)ccc3=O)ccc2n1` [Example 49, 3-{[(2-methoxyquinolin-6-yl)oxy]methyl}-1-(1-methyl-1H-pyrazol-4-yl)pyridazin-4(1H)-one] has an IC50 of 100 to 1000 nM.
`Cn1cc(-n2ccc(=O)c(SCc3ccc4ncccc4c3)n2)cn1` [Example 149, 1-(1-methyl-1H-pyrazol-4-yl)-3-[(quinolin-6-ylmethyl)thio]pyridazin-4(1H)-one] gave an IC50 of under 100 nM.
`CCn1cc(-n2ccc(=O)c(COc3ccc4ncc(-c5ccc(OC)nc5)cc4c3)n2)cn1` [Example 82, 1-(1-ethyl-1H-pyrazol-4-yl)-3-({[3-(6-methoxypyridin-3-yl)quinolin-6-yl]oxy}methyl)pyridazin-4(1H)-one] was tested, and the IC50 was under 100 nM.
With `Cn1cc(-n2ccc(=O)c(COc3ccc4ncc(NC(=O)Nc5cnc6ccc(OCc7nn(-c8cnn(C)c8)ccc7=O)cc6c5)cc4c3)n2)cn1` [Example 111, 1,3-bis(6-{[1-(1-methyl-1H-pyrazol-4-yl)-4-oxo-1,4-dihydropyridazin-3-yl]methoxy}quinolin-3-yl)urea] the IC50 was under 100 nM.
In the case of `Cn1cc(-n2ccc(=O)c(COc3ccc4[nH]c(-c5ccccc5)nc4c3)n2)cn1` [Example 19, 1-(1-methyl-1H-pyrazol-4-yl)-3-{[(2-phenyl-1H-benzimidazol-5-yl)oxy]methyl}pyridazin-4(1H)-one], the IC50 is reported as under 100 nM.
`CCn1cc(-n2ccc(=O)c(COc3ccc4ncc(OCCOC)cc4c3)n2)cn1` [Example 36, 1-(1-ethyl-1H-pyrazol-4-yl)-3-({[3-(2-methoxyethoxy)quinolin-6-yl]oxy}methyl)pyridazin-4(1H)-one] was tested, and the IC50 was under 100 nM.
`[2H]C([2H])([2H])C([2H])([2H])Oc1cnc2ccc(OCc3nn(-c4cnn(C)c4)ccc3=O)cc2c1` [Example 64, 3-[({3-[(^2H5)ethyloxy]quinolin-6-yl}oxy)methyl]-1-(1-methyl-1H-pyrazol-4-yl)pyridazin-4(1H)-one] showed an IC50 of under 100 nM.
Work on `COCCOC(=O)Nc1ccc(OCc2nn(-c3cnn(C)c3)ccc2=O)cc1` [Example 119, 2-methoxyethyl (4-{[1-(1-methyl-1H-pyrazol-4-yl)-4-oxo-1,4-dihydropyridazin-3-yl]methoxy}phenyl)carbamate] yielded an IC50 of 1000 to 3000 nM.
`Cn1cc(-n2ccc(=O)c(COc3ccc4ncc(OC(F)F)cc4c3)n2)cn1` [Example 66, 3-({[3-(difluoromethoxy)quinolin-6-yl]oxy}methyl)-1-(1-methyl-1H-pyrazol-4-yl)pyridazin-4(1H)-one] showed an IC50 of under 100 nM.
`CCn1cc(-n2ccc(=O)c(COc3ccc4ncc(-c5ccc(F)cc5)cc4c3)n2)cn1` [Example 78, 1-(1-ethyl-1H-pyrazol-4-yl)-3-({[3-(4-fluorophenyl)quinolin-6-yl]oxy}methyl)pyridazin-4(1H)-one] gave an IC50 of under 100 nM.
`COc1ccnc2ccc(CCc3nn(-c4cnn(C)c4)ccc3=O)cc12` [Example 59, 3-[2-(4-methoxyquinolin-6-yl)ethyl]-1-(1-methyl-1H-pyrazol-4-yl)pyridazin-4(1H)-one] showed an IC50 of under 100 nM.
`COC(=O)c1ccc(CCc2nn(-c3cnn(C)c3)ccc2=O)cc1` [Example 56, methyl 4-{2-[1-(1-methyl-1H-pyrazol-4-yl)-4-oxo-1,4-dihydropyridazin-3-yl]ethyl}benzoate] showed an IC50 of 1000 to 3000 nM.
With `CC(Oc1ccc2ncccc2c1)c1nn(-c2cccc(Br)c2)ccc1=O` (single isomer, unassigned) [Example 114, 1-(3-bromophenyl)-3-[1-(quinolin-6-yloxy)ethyl]pyridazin-4(1H)-one] the IC50 was 1000 to 3000 nM.
`CCn1cc(-n2ccc(=O)c(OCc3ccc4ncccc4c3)n2)cn1` [Example 128, 1-(1-ethyl-1H-pyrazol-4-yl)-3-(quinolin-6-ylmethoxy)pyridazin-4(1H)-one] showed an IC50 of 100 to 1000 nM.
With `CCn1cc(-n2ccc(=O)c(COc3ccc4ncc(-c5ccncc5)cc4c3)n2)cn1` [Example 80, 1-(1-ethyl-1H-pyrazol-4-yl)-3-{[(3-pyridin-4-ylquinolin-6-yl)oxy]methyl}pyridazin-4(1H)-one] the IC50 was under 100 nM.
Work on `CCn1cc(-n2ccc(=O)c(OC(C)c3ccc4nccc(OC)c4c3)n2)cn1` (single isomer, unassigned) [Example 146, 1-(1-ethyl-1H-pyrazol-4-yl)-3-[1-(4-methoxyquinolin-6-yl)ethoxy]pyridazin-4(1H)-one] yielded an IC50 of under 100 nM.
`CCn1cc(-n2ccc(=O)c(COc3ccc4ncc(-c5ccc(C(F)(F)F)cc5)cc4c3)n2)cn1` [Example 89, 1-(1-ethyl-1H-pyrazol-4-yl)-3-[({3-[4-(trifluoromethyl)phenyl]quinolin-6-yl}oxy)methyl]pyridazin-4(1H)-one] was tested, and the IC50 was under 100 nM.
`COc1ccnc2ccc(OCc3nn(-c4cnn(C)c4)ccc3=O)cc12` [Example 48, 3-{[(4-Methoxyquinolin-6-yl)oxy]methyl}-1-(1-methyl-1H-pyrazol-4-yl)pyridazin-4(1H)-one] was tested, and the IC50 was under 100 nM.
`Cn1cc(-n2ccc(=O)c(COc3ccc4ncc(F)cc4c3)n2)cn1` [Example 37, 3-{[(3-fluoroquinolin-6-yl)oxy]methyl}-1-(1-methyl-1H-pyrazol-4-yl)pyridazin-4(1H)-one] showed an IC50 of under 100 nM.

From US20130116231A1, “TYROSINE KINASE INHIBITORS” (Merck Sharp & Dohme Corp., priority 2010, published 2013)
